# Columns and labels:
# HEK 293T cells = experiment: TdT-based nucleotide incorporation into hgRNA sites (DNA-synthesis based recording system, Cas9 + hgRNA + TdT) upon deoxyribonucleoside input signal; format: cell-based
# Procedure: The disclosed system has been prototyped in HEK-293T cells. A hgRNA was co-expressed with terminal deoxynucleotidyl transferase (TdT), and Cas9. The TdT was directed to the double-stranded breaks created by Cas9 at the hgRNA sites and added nucleotides in HEK 293T cells (FIG. 1B).
# HEK 293T cells were treated with an adenosine deaminase inhibitor, pentostatin (deoxycoformycin, dCF), that inhibits degradation of dAdo, resulting in an altered nucleotide pool. The added small molecules (dAdo, dGuo, dCF etc) were defined as the input signal. The percentage change in the TdT-based nucleotides incorporated into the hgRNA sites was defined as the output signal.
# (§1) Further, this system allowed for the recording of a dose response in the output signal for varying concentrations of the input signals of dAdo, dThd and dGuo (FIGS. 2A, 2B and 2C). […] None of the current genetically encoded signal recording systems^12,13 synthesize a DNA-based record in a dose response manner in mammalian cells. This salient feature of being able to synthesize a record of various NTP concentrations in the genome of cells can help in the spatial reconstruction of tightly packed together cells in tissue. Moreover, since the output signal is high (e.g. with 5 mM dThd), several lower concentrations can be distinguished, thus providing a single-cell level resolution.
# HEK cells = experiment: Toxicity of input signal treatment to cells; format: cell-based; conditions: 500 μM treatment
# Excerpt: as §1
# [1] = input signal 5 mM, HEK 293T cells, FIG. 2B
smiles,measurement,setting,value
"OC[C@H]1O[C@@H](n2cnc3c2NC=NC[C@H]3O)C[C@@H]1O [dCF, pentostatin]",output signal response to input signal (in words),HEK 293T cells; HEK 293T cells,high output signal response
"Cc1cn([C@H]2C[C@H](O)[C@@H](CO)O2)c(=O)[nH]c1=O [dThd, deoxythymidine]",output signal (percentage change in TdT-based nucleotides incorporated into the hgRNA sites) for A,HEK 293T cells; [1],8%
same,output signal (percentage change in TdT-based nucleotides incorporated into the hgRNA sites) for C,HEK 293T cells; [1],10%
same,output signal (percentage change in TdT-based nucleotides incorporated into the hgRNA sites) for G,HEK 293T cells; [1],17.5%
same,output signal (percentage change in TdT-based nucleotides incorporated into the hgRNA sites) for T,HEK 293T cells; [1],20%
"Nc1nc2c(ncn2[C@H]2C[C@H](O)[C@@H](CO)O2)c(=O)[nH]1 [dGuo, deoxyguanosine]",output signal response to input signal (in words),HEK 293T cells; HEK 293T cells,high output signal response
"Nc1ncnc2c1ncn2[C@H]1C[C@H](O)[C@@H](CO)O1 [dAdo, deoxyadenosine]",dose response in the output signal with each increasing concentration of input signal,"HEK 293T cells; 0 to 500 μM, except for 50 μM treatment, FIG. 2A",higher output signal
same,output signal response to input signal (in words),HEK 293T cells; HEK 293T cells,high output signal response
same,toxicity to HEK cells,HEK cells,toxic

# — patent publication US20220282295A1, “SINGLE-CELL LEVEL CONNECTOMICS USING A DNA-SYNTHESIS BASED BARCODING SYSTEM AND METHODS OF USING THE SAME” (Northwestern University, priority 2021, published 2022)
